# Patent US12473262B2, “Aryl hydrocarbon receptor activators” (Oregon State University, priority 2019, dated 2025)
# Where two headings read alike, the source gives them in different places.
# Columns and labels:
# [1] = mouse, microsomes, 0.5 h, 1 μM, pH 7.4
# Protocol: (§3) The assessment of metabolic stability of testing compounds was performed using human, mouse, rat, dog and monkey liver microsomes (20 mg protein/ml). Each reaction mixture contained 42.5 μL of 0.1 M potassium phosphate buffer pH 7.4, containing respective LM protein (final concentration 0.5 mg/ml). 2.5 μL of the compound stock solution was added in it (1 μM final concentration). The reaction was initiated by the addition of 5 μL NADPH solution (final Concentration 1 mM). At different time points (0, 5, 15, and 30 minutes), samples were quenched with 200 μL of cold acetonitrile containing ISTD Propranolol. Samples were centrifuged at 3500 rpm for 20 mM at 4° C. Supernatant was subjected to LC-MS/MS analysis for quantification. Verapamil was used as a positive control.
# [2] = molecular target: aryl hydrocarbon receptor (AhR) (Mus musculus (Mouse), UniProt P30561); assay: AhR ligand screening: AhRE-luciferase reporter in transfected Hepa1 cells; format: cell-based; conditions: for Fold @ 1 nM: fold change of luciferase expression at 1 nM test compound relative to vehicle (0.1% DMSO); for Fold @ 100 nM: fold change of luciferase expression at 100 nM test compound relative to vehicle (0.1% DMSO); for Fold @ 10 uM: fold change of luciferase expression at 10 uM test compound relative to vehicle (0.1% DMSO); for Fold relative to benchmark @ 100 nM: luciferase expression at 100 nM test compound relative to 100 nM benchmark compound 11-cl-BBQ
# How it was run: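 Mouse Hepa1 cells transfected with an AhRE-luciferase reporter were plated at 1×10^4 cells/well, grown overnight, then exposed to compounds. Cell lysates were assayed for luciferase by luminometry, with results given as fold induction over 0.1% DMSO vehicle.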
# [3] = in vitro; conditions: human, microsomes, pH 7.4
# Protocol: as §3
# [4] = rat, microsomes, 0.5 h, 1 μM, pH 7.4
# Protocol: as §3
# [5] = in vitro; conditions: mouse, microsomes, pH 7.4
# Protocol: as §3
# [6] = in vitro; conditions: rat, microsomes, pH 7.4
# Protocol: as §3
# [7] = human, microsomes, 0.5 h, 1 μM, pH 7.4
# Protocol: as §3
# [8] = molecular target: CYP-2C8 (Homo sapiens (Human), UniProt P10632); assay: CYP panel profile: P450 inhibition, CYP-2C8; format: in vitro ADME; conditions: human liver microsomes
# Protocol: (§1) 5. CYP Panel Profile: P450 Inhibition
# (§2) From 10 mM stock solutions of test compounds, a dilution plate was prepared diluting serially starting from 5 mM up to 2 μM in Acetonitrile/DMSO or Methanol/DMSO Human liver Microsomes were added at required concentration as per specific CYP isoform in a deep well assay plate (1A2, 2C9, 2D6, 2B6, 2C8, 2C19, and 3A4). Compounds were spiked in all wells from dilution plate at final concentrations starting from 50 μM up to 0.02 μM, except for positive and negative control. Specific substrate were added to all wells and reactions were pre-incubated for 10 min. To start reactions, NADPH was added to all wells at 1 mM final concentration. Assay plate was mixed by vortexing and incubated at 37° C. for […] for 3A4.20 min for (1A2, 2C9, 2B6, 2C8, 2D6) and […] for 2C19. A quencher with chilled acetonitrile suitable internal standard was added. Samples were centrifuged and supernatants were collected and subjected to LC-MS/MS analysis for determination.
# [9] = molecular target: CYP-2C9 (Homo sapiens (Human), UniProt P11712); assay: CYP panel profile: P450 inhibition, CYP-2C9; format: in vitro ADME; conditions: human liver microsomes
# Protocol: as §1, §2
# [10] = In vivo PK study, intravenous and oral administration in male mice; design: species or system mouse; conditions: plasma; for C0: read-out: C0_Cmax
# Protocol: In Vivo PK Study Pharmacokinetics of Exemplary Compounds 362 and 893 Following an Intravenous and Oral Administration in Male C57BL/6J Mice.
# Male C57BL/6J mice, approximately 8-10 weeks old, were obtained from the vivarium of Fundación Ciencia & Vida Chile (Santiago, Chile). Dosing solution of Compound 362 for PO administration was formulated in a vehicle containing 40% DMSO, 20% Kolliphor EL, 40% Propylene Glycol at 0.8 mg/mL. Dosing solution of Compound 362 for IV administration was formulated in a vehicle containing 30% DMSO, 20% Kolliphor EL, 50% PBS at […].
# Male […] mice, approximately 8-11 weeks old, 22-27 grams were obtained from the vivarium Fundación Ciencia & Vida Chile (Santiago, Chile). Animals were acclimated for a minimum period of 4 days upon arrival at the testing facility. Animals were weighed, identified by marking the tail with numbers using a non-toxic permanent marker and designated into the following treatment groups on the day of dosing:
# Group 1 animals received an IV administration via caudal vein of 2 mg/kg PRXS0362 dosing solution.
# Group 2 animals received a PO administration via feeding tubes (20 gauge) of 8 mg/kg PRXS0362 dosing solution.
# Terminal whole blood was collected via cardiac puncture for group 1 at the following time points: 5, 10, 15, 30, 60, 120, 240, 360, and 480 minutes. Non-dosed mice were used to collect samples of zero time points. For the group 2 at the following time point: 15, 30, 60, 120, 240, 360, and 480 minutes.
# Whole blood, approximately 300 μL per time point, was collected into microtainer tubes with EDTA (K2). Blood samples were centrifuged immediately at approximately 9,000 G at 4° C. for 5 minutes and plasma separated. Plasma samples were placed into individually labeled tubes and stored in a −80° C. freezer prior to LC/MS/MS analysis.
# The whole brain was collected at each point only for both groups, for this the animals were euthanized with CO2, decapitated, the brain was extracted weighed, frozen in liquid nitrogen and stored at −80° C. prior to LC/MS/MS analysis.
# Compound 893 was tested by the same protocol as above.
# [11] = Liver microsomal stability, human; conditions: for Rem @ HLM × 30 min: human liver microsomes, 1 μM compound, 0.5 mg/ml protein; for half-life at 1 μM / microsomal CLint at 1 μM: human, liver microsomes, pH 7.4
# Protocol: as §3
# [12] = molecular target: CYP-2B6 (Homo sapiens (Human), UniProt P20813); assay: CYP panel profile: P450 inhibition, CYP-2B6; format: in vitro ADME; conditions: human liver microsomes
# Protocol: as §1, §2
# [13] = molecular target: CYP-2C19 (Homo sapiens (Human), UniProt P33261); assay: CYP panel profile: P450 inhibition, CYP-2C19; format: in vitro ADME; conditions: human liver microsomes
# Protocol: as §1, §2
# [14] = molecular target: CYP-1A2 (Homo sapiens (Human), UniProt P05177); assay: CYP panel profile: P450 inhibition, CYP-1A2; format: in vitro ADME
# Protocol: as §1, §2
# [15] = molecular target: CYP-2D6 (Homo sapiens (Human), UniProt P10635); assay: CYP panel profile: P450 inhibition, CYP-2D6; format: in vitro ADME; conditions: human liver microsomes
# Protocol: as §1, §2
# [16] = molecular target: CYP-3A4 (Homo sapiens (Human), UniProt P08684); assay: CYP panel profile: P450 inhibition, CYP-3A4; format: in vitro ADME; conditions: human liver microsomes
# Protocol: as §1, §2
# [17] = Liver microsomal stability, rat; conditions: for Rem @ RLM × 30 min: rat liver microsomes, 1 μM compound, 0.5 mg/ml protein; for half-life at 1 μM / microsomal CLint at 1 μM: rat, liver microsomes, pH 7.4
# Protocol: as §3
# [18] = Liver microsomal stability, mouse; conditions: for Rem @ MLM × 30 min: mouse liver microsomes, 1 μM compound, 0.5 mg/ml protein; for half-life at 1 μM / microsomal CLint at 1 μM: mouse, liver microsomes, pH 7.4
# Protocol: as §3
# [19] = system: T1D; conditions: murine model; cited from earlier work
# [20] = acute or chronic treatment of mice, therapeutic dose; cited from earlier work
# [21] = system: GVHD; conditions: murine model; cited from earlier work
# [22] = human liver microsomes, read-out: CYP-1A2 IC50
# Chain of CYP-1A2 (P05177 whole entry): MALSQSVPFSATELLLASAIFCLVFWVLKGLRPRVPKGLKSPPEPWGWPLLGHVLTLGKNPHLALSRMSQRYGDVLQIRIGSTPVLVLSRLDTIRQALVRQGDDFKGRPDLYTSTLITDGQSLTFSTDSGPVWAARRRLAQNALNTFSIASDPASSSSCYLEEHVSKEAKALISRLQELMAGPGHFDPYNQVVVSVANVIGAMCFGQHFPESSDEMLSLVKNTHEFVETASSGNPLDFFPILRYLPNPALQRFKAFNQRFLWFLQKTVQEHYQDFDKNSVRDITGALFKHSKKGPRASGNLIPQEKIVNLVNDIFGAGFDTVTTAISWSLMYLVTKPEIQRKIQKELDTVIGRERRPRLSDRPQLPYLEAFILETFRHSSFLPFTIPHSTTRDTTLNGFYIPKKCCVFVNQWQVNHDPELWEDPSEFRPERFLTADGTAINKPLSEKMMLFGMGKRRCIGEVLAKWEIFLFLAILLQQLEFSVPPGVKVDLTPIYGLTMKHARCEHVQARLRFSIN
# Chain of aryl hydrocarbon receptor (AhR) (P30561 10-805): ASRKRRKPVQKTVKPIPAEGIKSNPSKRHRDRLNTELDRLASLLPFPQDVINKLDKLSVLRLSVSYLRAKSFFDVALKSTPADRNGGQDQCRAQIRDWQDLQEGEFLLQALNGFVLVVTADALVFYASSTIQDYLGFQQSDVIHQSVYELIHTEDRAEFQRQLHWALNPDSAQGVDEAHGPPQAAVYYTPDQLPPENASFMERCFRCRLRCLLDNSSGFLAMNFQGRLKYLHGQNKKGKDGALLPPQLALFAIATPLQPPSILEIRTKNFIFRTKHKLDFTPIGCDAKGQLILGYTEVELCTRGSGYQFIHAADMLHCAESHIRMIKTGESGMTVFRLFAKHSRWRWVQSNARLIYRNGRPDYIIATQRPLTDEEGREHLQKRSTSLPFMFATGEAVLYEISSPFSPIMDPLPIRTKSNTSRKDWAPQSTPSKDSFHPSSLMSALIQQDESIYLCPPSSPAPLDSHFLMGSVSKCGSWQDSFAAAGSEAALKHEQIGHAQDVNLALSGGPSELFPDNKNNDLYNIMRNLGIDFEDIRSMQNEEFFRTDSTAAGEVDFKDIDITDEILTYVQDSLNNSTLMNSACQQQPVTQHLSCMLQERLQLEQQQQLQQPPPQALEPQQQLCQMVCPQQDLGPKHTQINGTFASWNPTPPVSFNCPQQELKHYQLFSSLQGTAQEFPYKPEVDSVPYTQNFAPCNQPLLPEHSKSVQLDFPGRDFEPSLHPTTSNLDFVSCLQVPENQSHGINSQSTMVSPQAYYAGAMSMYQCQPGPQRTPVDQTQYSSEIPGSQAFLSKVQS
# Chain of aryl hydrocarbon receptor (AhR) (P53762 whole entry partner): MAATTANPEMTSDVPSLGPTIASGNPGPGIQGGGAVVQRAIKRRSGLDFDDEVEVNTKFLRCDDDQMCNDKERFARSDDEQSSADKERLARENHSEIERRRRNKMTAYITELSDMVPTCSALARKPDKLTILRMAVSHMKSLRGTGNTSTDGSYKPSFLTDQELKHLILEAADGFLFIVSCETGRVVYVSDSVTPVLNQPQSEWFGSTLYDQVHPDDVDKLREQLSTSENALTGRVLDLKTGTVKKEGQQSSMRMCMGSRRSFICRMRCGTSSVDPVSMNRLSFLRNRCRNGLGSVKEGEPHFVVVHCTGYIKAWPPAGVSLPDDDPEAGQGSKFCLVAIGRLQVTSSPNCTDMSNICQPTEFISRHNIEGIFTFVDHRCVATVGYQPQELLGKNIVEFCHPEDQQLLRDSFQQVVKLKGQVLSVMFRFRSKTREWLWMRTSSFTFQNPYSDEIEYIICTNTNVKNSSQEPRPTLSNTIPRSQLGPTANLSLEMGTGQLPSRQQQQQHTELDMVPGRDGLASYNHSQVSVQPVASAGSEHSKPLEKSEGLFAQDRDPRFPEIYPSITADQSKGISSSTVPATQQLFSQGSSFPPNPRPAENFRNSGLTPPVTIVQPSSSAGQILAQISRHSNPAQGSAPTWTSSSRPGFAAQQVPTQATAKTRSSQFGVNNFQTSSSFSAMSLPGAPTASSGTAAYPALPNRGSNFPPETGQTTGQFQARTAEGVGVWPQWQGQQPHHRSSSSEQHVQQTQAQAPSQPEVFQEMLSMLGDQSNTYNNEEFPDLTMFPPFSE
# Chain of CYP-3A4 (P08684 whole entry): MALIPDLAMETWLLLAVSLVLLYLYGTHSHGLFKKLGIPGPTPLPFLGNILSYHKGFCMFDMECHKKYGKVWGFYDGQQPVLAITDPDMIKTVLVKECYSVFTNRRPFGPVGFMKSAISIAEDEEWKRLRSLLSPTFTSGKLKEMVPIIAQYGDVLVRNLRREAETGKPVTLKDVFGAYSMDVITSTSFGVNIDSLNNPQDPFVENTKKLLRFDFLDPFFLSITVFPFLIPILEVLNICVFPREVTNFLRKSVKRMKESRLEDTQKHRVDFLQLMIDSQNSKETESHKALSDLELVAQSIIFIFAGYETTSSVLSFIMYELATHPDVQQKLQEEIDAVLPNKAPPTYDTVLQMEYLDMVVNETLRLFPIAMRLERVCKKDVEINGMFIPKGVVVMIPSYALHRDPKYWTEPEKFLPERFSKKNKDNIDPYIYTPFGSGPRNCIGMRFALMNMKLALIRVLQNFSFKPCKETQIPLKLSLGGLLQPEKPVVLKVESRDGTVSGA
# Chain of CYP-2D6 (P10635 whole entry): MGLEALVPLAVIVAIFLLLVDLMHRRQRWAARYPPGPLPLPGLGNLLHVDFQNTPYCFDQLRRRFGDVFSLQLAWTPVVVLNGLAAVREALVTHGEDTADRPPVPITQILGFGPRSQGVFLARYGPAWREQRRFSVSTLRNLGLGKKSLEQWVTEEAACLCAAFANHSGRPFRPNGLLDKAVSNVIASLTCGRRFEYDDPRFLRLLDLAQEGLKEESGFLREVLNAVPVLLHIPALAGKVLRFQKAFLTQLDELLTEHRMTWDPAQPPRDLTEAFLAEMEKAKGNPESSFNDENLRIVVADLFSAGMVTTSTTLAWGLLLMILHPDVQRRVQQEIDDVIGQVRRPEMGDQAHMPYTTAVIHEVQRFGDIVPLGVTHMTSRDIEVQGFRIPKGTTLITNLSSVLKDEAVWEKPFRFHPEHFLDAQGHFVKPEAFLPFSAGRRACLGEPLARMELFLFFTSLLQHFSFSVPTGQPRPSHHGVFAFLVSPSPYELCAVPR
# Chain of CYP-2C19 (P33261 whole entry): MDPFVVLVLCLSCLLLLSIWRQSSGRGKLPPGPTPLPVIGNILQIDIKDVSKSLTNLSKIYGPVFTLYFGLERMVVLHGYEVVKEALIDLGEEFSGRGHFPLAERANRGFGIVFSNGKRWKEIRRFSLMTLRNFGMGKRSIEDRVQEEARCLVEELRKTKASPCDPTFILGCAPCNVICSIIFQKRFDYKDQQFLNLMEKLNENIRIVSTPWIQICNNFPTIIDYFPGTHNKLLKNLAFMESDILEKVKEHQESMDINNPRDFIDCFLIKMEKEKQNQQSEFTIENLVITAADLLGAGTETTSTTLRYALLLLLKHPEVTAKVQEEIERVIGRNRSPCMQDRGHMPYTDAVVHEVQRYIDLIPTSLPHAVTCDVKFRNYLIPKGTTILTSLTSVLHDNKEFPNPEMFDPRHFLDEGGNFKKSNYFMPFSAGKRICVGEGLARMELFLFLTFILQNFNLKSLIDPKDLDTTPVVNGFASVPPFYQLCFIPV
# Chain of CYP-2C8 (P10632 whole entry): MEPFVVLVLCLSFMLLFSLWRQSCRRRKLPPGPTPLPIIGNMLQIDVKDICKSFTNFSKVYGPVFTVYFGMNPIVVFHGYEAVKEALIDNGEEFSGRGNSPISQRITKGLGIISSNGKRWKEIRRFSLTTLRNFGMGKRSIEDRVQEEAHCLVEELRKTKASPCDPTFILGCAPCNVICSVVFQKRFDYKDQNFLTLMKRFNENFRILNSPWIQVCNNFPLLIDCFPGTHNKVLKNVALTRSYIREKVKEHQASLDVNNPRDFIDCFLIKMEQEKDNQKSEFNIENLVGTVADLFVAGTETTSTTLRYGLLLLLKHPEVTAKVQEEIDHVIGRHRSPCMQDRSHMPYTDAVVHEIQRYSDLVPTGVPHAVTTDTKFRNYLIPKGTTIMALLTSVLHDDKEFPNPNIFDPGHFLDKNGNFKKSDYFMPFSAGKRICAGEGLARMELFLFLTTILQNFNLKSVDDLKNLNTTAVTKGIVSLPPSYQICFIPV
# Chain of CYP-2C9 (P11712 whole entry): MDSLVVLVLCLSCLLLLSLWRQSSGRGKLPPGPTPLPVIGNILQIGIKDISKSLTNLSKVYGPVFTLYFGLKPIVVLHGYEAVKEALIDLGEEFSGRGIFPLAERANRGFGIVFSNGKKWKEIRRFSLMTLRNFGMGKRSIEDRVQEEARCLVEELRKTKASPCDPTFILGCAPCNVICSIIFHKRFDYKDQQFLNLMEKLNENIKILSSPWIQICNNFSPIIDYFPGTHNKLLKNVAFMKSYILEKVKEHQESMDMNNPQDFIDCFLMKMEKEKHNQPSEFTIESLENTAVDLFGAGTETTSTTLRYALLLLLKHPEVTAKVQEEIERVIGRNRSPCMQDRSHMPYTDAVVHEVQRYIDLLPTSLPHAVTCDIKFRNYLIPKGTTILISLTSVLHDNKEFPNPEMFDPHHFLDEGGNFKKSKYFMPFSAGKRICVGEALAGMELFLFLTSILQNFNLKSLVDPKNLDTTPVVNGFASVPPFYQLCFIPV
SMILES,Rem @ MLM × 30 min [1] [%],Fold @ 1 nM [2] [fold],Fold @ 100 nM [2] [fold],Fold @ 10 uM [2] [fold],Fold relative to benchmark @ 100 nM [2] [fold],IC50 [8] [µM],IC50 [9] [µM],Rem @ HLM × 30 min [11] [%],half-life at 1 μM [11] [min],microsomal CLint at 1 μM [11] [µL/min/mg],IC50 [12] [µM],IC50 [13] [µM],IC50 [15] [µM],IC50 [16] [µM],Rem @ RLM × 30 min [17] [%],half-life at 1 μM [17] [min],microsomal CLint at 1 μM [17] [µL/min/mg],Rem @ MLM × 30 min [18] [%],half-life at 1 μM [18] [min],microsomal CLint at 1 μM [18] [µL/min/mg],also measured
O=C(c1ccc2ccccc2c1)c1c[nH]c2ccc(Cl)cc12 [Compound 885],45.1,1,1,1,0.02,,,,,,,,,,,,,,,,half-life at 1 μM [3]: 36.8 min; microsomal CLint at 1 μM [3]: 37.7 µL/min/mg; Rem @ RLM × 30 min [4]: 50.2%; half-life at 1 μM [5]: 27.5 min; microsomal CLint at 1 μM [5]: 50.4 µL/min/mg; half-life at 1 μM [6]: 30.7 min; microsomal CLint at 1 μM [6]: 45.1 µL/min/mg; Rem @ HLM × 30 min [7]: 58.1%
O=C(c1cccc2ccccc12)c1c[nH]c2cc(Cl)c(Cl)cc12 [Compound 434],10.6,1,1,9,0.03,,,,,,,,,,,,,,,,half-life at 1 μM [3]: 48.7 min; microsomal CLint at 1 μM [3]: 28.5 µL/min/mg; Rem @ RLM × 30 min [4]: 41.6%; half-life at 1 μM [5]: 10.7 min; microsomal CLint at 1 μM [5]: 129 µL/min/mg; half-life at 1 μM [6]: 28 min; microsomal CLint at 1 μM [6]: 49.6 µL/min/mg; Rem @ HLM × 30 min [7]: 63.4%
"Clc1ccc2[nH]c(-c3cccc4ccccc34)cc2c1 [Compound 893, 5-chloro-2-(naphthalen-1-yl)-1H-indole]",,1,49,49,0.91,7.7,7.2,19.6,14.1,98.5,8,2.9,31.7,23.3,51.7,35.8,38.8,16.7,12.2,114,"CL_CL/F ([10]; IV 2 mg/Kg): 4.218 L/[Kg*h]; Vd_Vd/F ([10]; IV 2 mg/Kg): 8.777 L/kg; thalf ([10]; IV 2 mg/Kg): 1.442 h; CL_CL/F ([10]; PO 8 mg/Kg): 5.739 L/[Kg*h]; Vd_Vd/F ([10]; PO 8 mg/Kg): 12.846 L/kg; thalf ([10]; PO 8 mg/Kg): 1.551 h; AUC(0-inf) ([10]; mouse, IV 2 mg/Kg): 474 ng·h/mL; AUC(0-t) ([10]; mouse, IV 2 mg/Kg): 451 ng·h/mL; MRT ([10]; mouse, IV 2 mg/Kg): 2.01 h; C0 ([10]; mouse, IV 2 mg/Kg): 174 ng/mL; bioavailability ([10]; mouse, PO 8 mg/Kg vs IV 2 mg/Kg): 73.5%; AUC(0-inf) ([10]; mouse, PO 8 mg/Kg): 1390 ng·h/mL; AUC(0-t) ([10]; mouse, PO 8 mg/Kg): 1330 ng·h/mL; MRT ([10]; mouse, PO 8 mg/Kg): 2.66 h; Tmax ([10]; mouse, PO 8 mg/Kg): 1 h; C0 ([10]; mouse, PO 8 mg/Kg): 398 ng/mL; IC50 [14, 22]: 0.5 µM"
"O=c1c2cccc3cccc(c32)c2nc3cc(Cl)ccc3n12 [Compound 11-Cl-BBQ, 11-chloro-7H-benzimidazo[2,1-a]benzo[de]-Iso-quinolin-7-one]",,,,,,,,,,,,,,,,,,,,,development of T1D [19]: suppress the development of T1D; overt toxicity [20]: no overt toxicity; development of GVHD [21]: suppress the development of T1D and GVHD
O=C(c1ccc(F)c(F)c1)n1c(-c2cccc3ccccc23)cc2cc(Cl)ccc21 [Compound 973],,1,1,1,0.02,> 50,> 50,34.2,16.7,83.1,> 50,23.1,> 50,> 50,46.3,26.5,52.3,58.7,39.9,34.8,IC50 [14]: > 50 µM
O=S(=O)(c1ccc(C(F)(F)F)cc1)n1c(-c2cccc3ccccc23)nc2ccc(Cl)cc21 [Compound 782],,1,23,19,0.92,> 50,> 50,66.4,50.5,27.4,> 50,6,> 50,0.4,31.8,17.8,78,14.9,10.9,127,"IC50 [14, 22]: 47.9 µM"
